Measurements: paper PMC8304761, “Development of an Androgen Receptor Inhibitor Targeting the N-Terminal Domain of Androgen Receptor for Treatment of Castration Resistant Prostate Cancer” (Cancers, 2021)

How the values were obtained:
[1] = tested on: prostate specific antigen (PSA); test: Secreted PSA levels in LNCaP cells; format: cell-based; conditions: Homo sapiens; LNCaP cells; read-out: IC50, secreted PSA levels
Source text: Next, we tested the activity of VPC-220010 against full length AR using an AR-eGFP transcription assay in LNCaP cells. […] To further validate VPC-220010 as an AR inhibitor, we evaluated its ability to reduce the production of endogenous prostate specific antigen (PSA) in PCa cell lines. PSA is an AR-regulated serine protease and is widely used as a biomarker for PCa.

22Rv1 cells = test: Proliferation assay (PrestoBlue), 22Rv1; format: cell-based; conditions: Homo sapiens, 72 h, Figure 2D, read-out: IC50, viability of 22Rv1 cells
Description: (§1) Proliferation assay: LNCaP, 22Rv1 and PC3 cells were plated at 3000 cells per well in RPMI1640 containing 5% CSS in a 96-well plate, treated with 0.1 nm R1881 (a synthetic androgen) and test compounds (0–25 μM) for 72 h. Cell proliferation was determined using the PrestoBlue^TM cell proliferation assay following incubation with the compound […] over 72 h. In brief, 30 μL of the PrestoBlue^TM reagent was added to cells in each well of the 96-well plate containing 200 μL of media and incubated for 60 min at 37 °C in 5% CO2. The production of […]. Fluorescence measurement was read on a TECAN F200.
(§2) We then evaluated the effect of VPC-220010 on the proliferation of androgen-dependent LNCaP and ARV7-dependent 22Rv1 cells.

LNCaP cells = test: Proliferation assay (PrestoBlue), LNCaP; format: cell-based; conditions: Homo sapiens, 72 h, R1881, Figure 2C, read-out: IC50, viability of LNCaP cells
Description: as §1, §2

AR-NTD (Gal4DBD-AR1-558) = target: T1, AR-NTD (Gal4DBD-AR1-558) (Homo sapiens, UniProt P10275); test: NTD-transactivation assay (mammalian two hybrid, forskolin) in LNCaP cells; format: cell-based; conditions: varying concentrations; Figure 3
T1 construct: expressed in transfected cells; host or cells: LNCaP
T1 sequence (P10275 1-558): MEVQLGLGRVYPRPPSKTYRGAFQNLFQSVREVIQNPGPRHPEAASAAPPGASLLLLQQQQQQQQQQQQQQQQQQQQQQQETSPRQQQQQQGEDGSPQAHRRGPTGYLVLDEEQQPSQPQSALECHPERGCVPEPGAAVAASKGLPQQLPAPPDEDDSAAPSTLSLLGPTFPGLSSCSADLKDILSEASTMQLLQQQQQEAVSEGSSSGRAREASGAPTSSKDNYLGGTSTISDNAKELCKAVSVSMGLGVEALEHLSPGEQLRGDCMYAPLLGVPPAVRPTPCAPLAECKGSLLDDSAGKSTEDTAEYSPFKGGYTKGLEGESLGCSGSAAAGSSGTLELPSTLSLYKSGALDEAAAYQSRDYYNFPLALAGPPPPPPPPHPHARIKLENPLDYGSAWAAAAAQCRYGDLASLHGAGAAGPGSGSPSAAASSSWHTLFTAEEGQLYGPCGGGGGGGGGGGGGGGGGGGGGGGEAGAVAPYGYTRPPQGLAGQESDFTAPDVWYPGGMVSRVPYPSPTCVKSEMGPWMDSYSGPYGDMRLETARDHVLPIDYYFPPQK
Description: Following 48 h incubation, cells were then treated with compounds at various concentrations and 0.1 nm R1881 (in 100% ethanol) for 24 h for AR assays. GR, ER, and PR activation was stimulated with 1 nm dexamethasone, estradiol, or progesterone, respectively. […] Cell lysis was carried out with 60 μL of 1× passive lysis buffer/well (Promega Madison, WI, USA). 20 μL of cell lysate from each well were mixed with 50 μL of luciferase assay reagent (Promega Madison, WI, USA), and luminescence was recorded on a TECAN M200pro plate reader.
To confirm the proposed mechanism of VPC-220010 we tested the effect of this compound on NTD-mediated transactivation. […] When incubated with forskolin, this system induces transcription activity through phosphorylation of the AR-NTD [10].

[2] = tested on: ARV7-regulated genes UBE2C, AKT1 and CDC20; test: qPCR of ARV7-regulated genes in 22Rv1 cells; format: cell-based, human; conditions: Figure 5B
Description: Total RNA was extracted from cells with Trizol and the Qiagen RNeasy RNA Extraction Kit (Qiagen Germantown, MD, USA). Approximately 8 × 10^6 cells were collected per sample, with three biological replicates for each treatment. The concentrations and the qualities of the RNA samples were checked by Nanodrop. cDNA was prepared busing MMLV-Reverse Transcriptase (Thermo Fisher Scientific, Waltham, MA, USA). qRT-PCR was performed with LightCycler® 480 SYBR Green I Master (Roche, Basel, Switzerland).

PSA = tested on: PSA; design: method as in doi:10.1200/JCO.2019.37.7_suppl.257; conditions: patients, metastatic CRPC, low levels of circulating EPI-506; cited from earlier work

Row | SMILES | IC50 [1] [µM] | IC50 (22Rv1 cells) [µM] | IC50 (LNCaP cells) [µM] | AR-NTD activity induced by forskolin (AR-NTD (Gal4DBD-AR1-558)) | expression of ARV7-regulated genes UBE2C, AKT1 and CDC20 (qPCR) [2] | decrease in PSA (PSA)
1 | CC(C)(c1ccc(OCC(O)CO)cc1)c1ccc(OCC(O)CCl)cc1 (stereo not drawn) [EPI-001, reference compound] | > 25 | > 50 | > 25 | inhibited | inhibited | –
2 | CC(=O)OC[C@H](COc1ccc(C(C)(C)c2ccc(OC[C@@H](CCl)OC(C)=O)cc2)cc1)OC(C)=O [EPI-506] | – | – | – | – | – | 4–29%
